Measurements as given in article PMC12472597, “Pan-Amyloid Reactive Peptides p5+14 and p5R Exhibit Specific Charge-Dependent Binding to Glycosaminoglycans” (Pharmaceuticals, 2025).
“Also recorded” adds a separate entry of the source. No end group written: not given here.

Assays:
[1] = cited from earlier work
Source text: The concept of pan-amyloid reactive agents is not a new one. […] The binding sites are recurring with defined periodicity, which results in Congo red birefringence when stained amyloid is viewed under cross polarized illumination,a and a red shift in the emission maximum and increase in the quantum yield when thiofl ...

[2] = clinical studies (NCT02603172); cited from earlier work
Method: The impact of accessory proteins in amyloid deposits remains unclear; however, some components have been evaluated extensively. Serum amyloid P component, for example, was thought to stabilize the amyloid pathology and render it resistant to proteolysis and immunological clearance. This hypothesis was tested using a small molecule drug (miridesap) that crosslinks SAP, thereby clearing it from amyloid deposits, potentially leading to their clearance. […] This was ...

[3] = GAG microarray binding (47 GAGs); conditions: biotinylated peptide
Method: To assess the binding selectivity of biotinylated p5+14 and p5R peptides, we used a commercial glycosaminoglycan (GAG) binding microarray (ZBiotech, CO, USA), which contains 16 subarrays each consisting of 47 differing GAGs (varying lengths, charges, and composition (Supplementary Figure S1)) plus internal controls. Increasing concentrations of each peptide were evaluated on the subarrays. The GAG arrays consisted of exemplar hyaluronic acid (HA), heparin, chondroitin sulfate A/C (CS-AC), chondroitin sulfate D (CS-D), dermatan sulfate (DS), heparan sulfate (HS with low to intermediate sulfation levels), heparan sulfate (HS with high sulfation levels), and […] (KS). Background corrected binding of peptides p5+14 and p5R, at 2 µg/mL, to each GAG is shown in Figure 4A,B (additional concentrations are shown in Supplementary Figure S2). […] For heparin and highly sulfated HS, the binding intensity closely paralleled the total negative charge for each GAG (Figure 4C).
Glycosaminoglycan (GAG) microarray binding studies were performed by Z Biotech (Z Biotech, LLC, Aurora, CO, USA). Briefly, microarrays were laid out in a 16-subarray arrangement with 47 GAG or 24 heparan sulfate (HS) binding targets per subarray. Spotted arrays were blocked at room temperature (RT) for 30 min with Glycan Array Blocking Buffer (Z Biotech, LLC, Aurora, CO, USA) before being washed. Biotinylated peptides were diluted in blocking buffer + 1% bovine serum albumin to final concentrations of 50, 10, 2, 0.4, and 0.08 µg/mL and the solutions added to the arrays for 1 h at RT. […] The fluorescence emission was quantified by scanning at 532 nm and evaluated using Mapix microarray software (Innopsys, Carbonne, France). […]
(§1) Data visualization, statistical analysis, and correlations were performed using GraphPad Prism v 9.4.1 or later. […] Apparent affinities (Ec50) of peptides to array substrates were calculated using sigmoidal 4PL curve fitting to calculate the Ec50 in µg/mL, which was converted to molarity using the appropriate peptide molecular weight.

[4] = GAG array apparent EC50, heparin (GAG16); type: binding; conditions: biotinylated peptide, 1 h RT, n = 4
Source text: (§2) One exemplar GAG from the groups of heparin, HS, CS-AC, and CS-D was chosen to assess the Ec50 (concentration at the midpoint of binding). Bound peptide fluorescence was plotted against the concentration of peptide and a sigmoidal 4PL binding curve fit to the data (Figure 6). For GAGs with high peptide binding (heparin, HS, and highly sulfated CS-D), Ec50 calculations could be performed for both biotinylated p5+14 and p5R (Figure 6A,C,D). […] The differential binding potency, despite the shared selectivity, is likely due to the higher net charge on p5+14 (+12) compared with p5R (+8).
(§3) Glycosaminoglycan (GAG) microarray binding studies were performed by Z Biotech (Z Biotech, LLC, Aurora, CO, USA). Briefly, microarrays were laid out in a 16-subarray arrangement with 47 GAG or 24 heparan sulfate (HS) binding targets per subarray. […] The fluorescence emission was quantified by scanning at 532 nm and evaluated using Mapix microarray software (Innopsys, Carbonne, France). […]
as §1

[5] = GAG array apparent EC50, CS-AC (GAG22); type: binding; conditions: biotinylated peptide, n = 4; for EC50: 1 h RT, 4PL fit
Source text: as §2
(§4) Glycosaminoglycan (GAG) microarray binding studies were performed by Z Biotech (Z Biotech, LLC, Aurora, CO, USA). Briefly, microarrays were laid out in a 16-subarray arrangement with 47 GAG or 24 heparan sulfate (HS) binding targets per subarray. Spotted arrays were blocked at room temperature (RT) for 30 min with Glycan Array Blocking Buffer (Z Biotech, LLC, Aurora, CO, USA) before being washed. Biotinylated peptides were diluted in blocking buffer + 1% bovine serum albumin to final concentrations of 50, 10, 2, 0.4, and 0.08 µg/mL and the solutions added to the arrays for 1 h at RT. The arrays were then washed again and streptavidin-Cy3 (0.2 µg/mL) added, followed by a 1-h incubation. The fluorescence emission was quantified by scanning at 532 nm and evaluated using Mapix microarray software (Innopsys, Carbonne, France). Background control data were subtracted from binding signals before the data were averaged.
(§5) Data visualization, statistical analysis, and correlations were performed using GraphPad Prism v 9.4.1 or later. Correlations of peptide binding to microarray substrates were performed using Pearson’s correlations. Apparent affinities (Ec50) of peptides to array substrates were calculated using sigmoidal 4PL curve fitting to calculate the Ec50 in µg/mL, which was converted to molarity using the appropriate peptide molecular weight.

[6] = GAG array apparent EC50, CS-D (GAG28); type: binding; conditions: biotinylated peptide; for EC50: 1 h RT, 4PL fit, n = 4
Source text: as §2, §4, §5

[7] = GAG array apparent EC50, HS (GAG46); type: binding; conditions: biotinylated peptide, highly sulfated HS, 4PL fit, n = 4
Source text: as §2, §3, §1

[8] = Heparan sulfate microarray binding (24 HS); conditions: biotinylated peptide; 0.4, 2, 10 µg/mL; n = 6
Method: This array comprised 24 structurally unique synthetic HS domains that varied in length, net charge, and charge density (Supplementary Figure S3). The binding of biotinylated peptides p5+14 (Figure 7A) and p5R (Figure 7B) to the HS array was performed as above, using increasing concentrations of peptide. The intensity of binding for both peptides, based on the fluorescence intensity, was closely related to the total charge (total sulfations) of the ligand (Figure 7, shown in red).
as §3, with “subarray. Spotted arrays were blocked at room temperature (RT) for 30 min with Glycan Array Blocking Buffer (Z Biotech, LLC, Aurora, CO, USA) before being washed.” for “subarray.”
as §1

[9] = HS array apparent Ec50, HS13; type: binding; conditions: biotinylated peptide; increasing peptide concentration; n = 6
Method: (§6) Biotinylated peptide binding to four of the HS glycans in the array were analyzed further to assess the estimated binding potency (Figure 9). […] The HS glycans used in this binding analysis contained fewer saccharide units and less total charge compared with that shown in Figure 6D, which may explain the difference in the estimated potency data.
as §3, with “subarray. Spotted arrays were blocked at room temperature (RT) for 30 min with Glycan Array Blocking Buffer (Z Biotech, LLC, Aurora, CO, USA) before being washed.” for “subarray.”
as §1

[10] = HS array apparent Ec50, HS16; type: binding; conditions: biotinylated peptide, 4PL fit, n = 6
Method: as §6
as §3, with “subarray. Spotted arrays were blocked at room temperature (RT) for 30 min with Glycan Array Blocking Buffer (Z Biotech, LLC, Aurora, CO, USA) before being washed.” for “subarray.”
as §1

[11] = HS array apparent Ec50, HS22; type: binding; conditions: biotinylated peptide, 4PL fit, n = 6
Method: as §6
as §3, with “subarray. Spotted arrays were blocked at room temperature (RT) for 30 min with Glycan Array Blocking Buffer (Z Biotech, LLC, Aurora, CO, USA) before being washed.” for “subarray.”
as §1

[12] = HS array apparent Ec50, HS24; type: binding; conditions: biotinylated peptide, 4PL fit, n = 6
Method: as §6
as §3, with “subarray. Spotted arrays were blocked at room temperature (RT) for 30 min with Glycan Array Blocking Buffer (Z Biotech, LLC, Aurora, CO, USA) before being washed.” for “subarray.”
as §1

[13] = Circular dichroism secondary structure; type: physicochemical
Method: Peptide secondary structures were analyzed by circular dichroism using an Olis RSM 1000 (On-line Instrument Systems, Inc., Bogart, GA, USA). Each study consisted of three replicates that were averaged and the dilution/background spectra subtracted. Non-biotinylated peptides were diluted to 0.05 mg/mL in phosphate buffered saline (PBS). For experiments involving the addition of enoxaparin (Amphastar Pharmaceuticals Inc., Rancho Cucamonga, CA., USA), enoxaparin was added to diluted peptide in PBS to reach a final concentration of 0–66.7 µg/mL. For experiments involving the addition of 2,2,2-trifluoroethanol (TFE) (Thermo Fisher Scientific, Waltham, MA, USA), TFE was added to diluted peptide in PBS to reach a final concentration of 0–40%.

[14] = PET/CT imaging of patients with systemic amyloidosis; type: in vivo, human; conditions: PET/CT at 5 h post injection
Method: Patients were imaged with p5+14 as part of the first-in-human, open label, Phase 1 study (NCT03678259). Synthesis of ^124I-labeled p5+14 has previously been reported. Briefly, lyophilized human grade peptide (Attralus, Inc., Naples, FL, USA) was radiolabeled on the day of use with iodine-124 (3D Imaging, Little Rock, AR, USA) using iodogen as the oxidant. Subjects were administered a 2 mCi dose of I-124 (<2 mg of peptide) intravenously. PET/CT images were acquired from crown to thighs at 5 h post injection, using a Siemens Biograph PET/CT (Siemens Healthineers, Malvern, PA, USA) with 5 min bed positions for the PET and a low dose CT (120 kVp, 50 effective mAs).
Data were reconstructed using a 3-dimensional ordered subset expectation maximization algorithm with attenuation and prompt gamma corrections, a 168 × 168 image matrix, and an image resolution of ~8 mm full width at half maximum. CT reconstruction utilized a medium smoothing kernel and 4 mm reconstruction increments. Patient PET/CT images were generated using Inveon Research Workplace software (Ed. 4.2 [4.2.0.15]; Siemens Preclinical Solutions).

[15] = cited from earlier work; remark: listed apart in the source
Source text: Both peptides consist of a repeating heptad structure with periodic lysine (p5+14; -XXKXXXK-) or arginine (p5R; -XXRXXXR-) amino acids. […] These peptides also avidly bind other highly negatively charged linear molecules such as heparin and hypersulfated HSPG, the latter of which is associated with amyloid deposits in vivo [18, 20, 21, 22].

[16] = array in blocking buffer + 1% BSA, 0.08-50 µg/mL, streptavidin-Cy3, 532 nm, read-out: Apparent EC50
[17] = converted from µg/mL using peptide molecular weight, read-out: Apparent EC50 (Molarity)
[18] = HS array in blocking buffer + 1% BSA, 1 h RT, streptavidin-Cy3, 532 nm, read-out: Apparent Ec50
[19] = converted from µg/mL using peptide molecular weight, read-out: Apparent Ec50 (Molarity)
[20] = initial spectrum, non-biotinylated peptide 0.05 mg/mL in PBS, n = 3

Nc1c(/N=N/c2ccc(-c3ccc(/N=N/c4cc(S(=O)(=O)O)c5ccccc5c4N)cc3)cc2)cc(S(=O)(=O)O)c2ccccc12 [Congo red]
Amyloid binding [1]: bind all types of amyloid but not in a specific way

O=C(O)[C@H]1CCCN1C(=O)CCCCC(=O)N1CCC[C@@H]1C(=O)O [miridesap]
Removal of amyloid in patients [2]: failed to promote the meaningful removal of amyloid in patients

Cc1ccc2c(c1)sc(-c1ccc(N(C)C)cc1)[n+]2C [thioflavin T]
Amyloid binding [1]: bind all types of amyloid but not in a specific way

GGGYSKAQKAQAKQAKQAQKAQKAQAKQAKQAQKAQKAQAKQAKQ [p5+14, 45-residue polybasic lysine heptad-repeat peptide, net charge +12]
GAG binding selectivity ([3]; 2 µg/mL, background corrected fluorescence, n = 4): preferential binding to heparin and highly sulfated HS GAGs; also recorded: Little to no binding to HA, CS-AC, CS-D (with singular exception), DS, and KS
Binding to GAGs that were not heparin or HS ([3]; 2 µg/mL, n = 4): very little binding
Affinity for heparin and HS immobilized in the arrays ([3]; compared with biotinylated p5R, GAG and HS arrays): higher affinity for both heparin and HS immobilized in the arrays
EC50 ([4]; array in blocking buffer + 1% BSA, 0.08-50 µg/mL, streptavidin-Cy3, 532 nm, sigmoidal 4PL fit, read-out: Apparent EC50): 1.2 µg/mL
EC50 ([4]; converted from µg/mL using peptide molecular weight, 4PL fit, read-out: Apparent EC50 (Molarity)): 251 nM
EC50 [5, 16]: 3.38 µg/mL
EC50 [5, 17]: 708 nM
Binding to CS-AC ([5]; fluorescence au vs peptide concentration): saturable binding
Reactivity with CS-D GAGs ([6]; GAG28 compared with GAG23-GAG27): abrupt intense reactivity of the peptides with GAG28, but none of the other CS GAGs (GAG23-GAG27)
EC50 [6, 16]: 1.33 µg/mL
EC50 [6, 17]: 280 nM
EC50 ([7]; array in blocking buffer + 1% BSA, 0.08-50 µg/mL, 1 h RT, streptavidin-Cy3, 532 nm, read-out: Apparent EC50): 0.932 µg/mL
EC50 [7, 17]: 196 nM
HS binding pattern [8]: the binding to HS appeared to correlate precisely with the total charge of the HS
Binding to HS13 [9]: did not reach saturation
EC50 [10, 18]: 0.668 µg/mL
EC50 [10, 19]: 140 nM
EC50 [11, 18]: 0.473 µg/mL
EC50 [11, 19]: 99.3 nM
EC50 [12, 18]: 0.448 µg/mL
EC50 [12, 19]: 94 nM
Secondary structure in solution ([13]; PBS pH 7.2): partially unfolded states in solution
Secondary structure with low molecular weight heparin ([13]; in PBS with enoxaparin): adopt an α-helical structure
CD large minimum [13, 20]: 208 nm
CD smaller minimum [13, 20]: 222 nm
Ratio of the CD minima with enoxaparin ([13]; non-biotinylated peptide 0.05 mg/mL in PBS, higher concentrations of enoxaparin (0-66.7 µg/mL), n = 3): ≥ 1
Ratio of the CD minima with TFE ([13]; non-biotinylated peptide 0.05 mg/mL in PBS, increasing TFE (0-40%), n = 3): ≥ 1
Organ uptake in patients ([14]; 2 mCi (<2 mg of peptide) i.v., patients with systemic amyloidosis): consistent with uptake in organs and tissues clinically known or suspected of amyloid deposition
Organ uptake in healthy subjects ([14]; 2 mCi i.v., healthy subjects): no pathologic uptake was observed

GGGYSRAQRAQARQARQAQRAQRAQARQARQ [p5R]
In vivo biodistribution vs basic fibroblast growth factor ([15]; ^125I-labeled): differed dramatically from that of the quintessential HSPG binding protein, basic fibroblast growth factor

bFGF: prototypical HS binding peptide [reference compound]
Binding in healthy tissues ([15]; healthy liver tissue and renal glomerulae): strong reactivity with healthy liver tissue and renal glomerulae

serum amyloid P-component: biological reagent that exhibits pan-amyloid reactivity
Amyloid binding [1]: exhibit pan-amyloid reactivity
